From patent publication US8822468B2 (Novartis AG, priority 2008, dated 2014)

Target: T1, cMET receptor tyrosine kinase (GST-cMET (969-1390)) (Homo sapiens, UniProt P08581)
T1 construct: made in house
Assay: EPK cMET profiling assay (LanthaScreen TR-FRET antibody based kinase phosphorylation assay)
Format: biochemical
Details: purified recombinant GST-cMET (969-1390), 2 μM ATP, 50 nM Fluorescein-PolyEAY, 60 minutes at room temperature; read-out: c-Met IC50
Method: A number of compounds of the present invention were assayed in an antibody based kinase phosphorylation assay as follows.
EPK cMET Profiling Assay:
The EPK kinase assay for cMET receptor tyrosine kinase was developed, using the purified recombinant GST-fusion protein, containing the cytoplasmic domain of the enzyme. GST-cMET (969-1390) was purified by affinity chromatography.
The kinase assay is based on the LanthaScreen™ technology. LanthaScreen™ is the detection of Time-Resolved Fluorescence Resonance Energy Transfer (TR-FRET) using lanthanide chelates to measure interactions between various binding partners. In a TR-FRET kinase assay, a long-lifetime lanthanide donor species is conjugated to an antibody that specifically binds to a phosphorylated product of a kinase reaction that is labeled with a suitable acceptor fluorophore. This antibody-mediated interaction brings the lanthanide donor and the acceptor into proximity such that resonance energy transfer can take place, resulting in a detectible increase in the FRET signal.
The kinase reactions were performed in 384 well microtiter plates in a total reaction volume of 9.05 μL. The assay plates were prepared with 0.05 μL per well of test compound in the appropriate test concentration, as described under “preparation of compound dilutions”. The reactions were started by combining 4.5 μL of ATP solution with 4.5 μL of enzyme-substrate mix (consisting of kinase and substrate). The final concentrations in the kinase reactions were 35 mM Tris/HCl, 1 mM DTT, 0.025% Tween20, 10 μM sodium orthovanadate, 0.25% BSA, 0.6% DMSO, 10 mM MgCl2, 3 mM MnCl2, 2 μM ATP, 50 nM Fluorescein-PolyEAY, and 0.3 nM enzyme.
The reactions were incubated for 60 minutes at room temperature and stopped by adding 4.5 μL of stop buffer (50 mM EDTA, 0.04% NP40, 20 mM Tris/HCl).
Subsequently 4.5 μL of detection mix (50 mM Tris/HCl, 2 mM DTT, 0.05% Tween20, 20 μM sodium orthovanadate, 1% BSA, 1.72 μg/ml Tb-PY20 antibody) were added to the stopped reactions. After 30 minutes incubation at room temperature, the plates were measured in a BMG Pherastar fluorescence reader. The effect of compound on the enzymatic activity was in all assays obtained from the linear progress curves and determined from one reading (end point measurement).
Test compounds were dissolved in DMSO (10 mM) and transferred into 1.4 mL flat bottom or V-shaped Matrix tubes carrying a unique 2D matrix. The stock solutions were stored at −20° C. if not used immediately. For the test procedure the vials were defrosted and identified by a scanner whereby a working sheet was generated that guided the subsequent working steps.
Compound dilutions were made in 96 well plates. This format enabled the assay of maximally 40 individual test compounds at 8 concentrations (single points) including 4 reference compounds. The dilution protocol included the production of “pre-dilution plates”, “master plates” and “assay plates”.
Pre-dilution plates: 96 polypropylene well plates were used as pre-dilution plates. A total of 4 pre-dilution plates were prepared including 10 test compounds each on the plate positions A1-A10, one standard compound at A11 and one DMSO control at A12. All dilution steps were done on a HamiltonSTAR robot.
Master plates: 100 μL of individual compound dilutions including standard compound and controls of the 4 “pre-dilution plates” were transferred into a 384 “master plate” including the following concentrations 1,820, […], 182, 54.6, 18.2, 5.46, 1.82 and 0.546 μM, respectively in 90% of DMSO.
Assay plates: Identical “assay plates” were then prepared by pipetting 50 nL each of compound dilutions of the “master plates” into 384-well “assay plates” by means of a HummingBird 384-channel dispenser. These plates were used directly for the assay which was performed in a total volume of 9.05 μL. This led to a final compound concentration of 10, 3.0, 1.0, 0.3, 0.1, 0.03, 0.01 and 0.003 μM and a final DMSO concentration of 0.5% in the assay.

T1 sequence (P08581 969-1390): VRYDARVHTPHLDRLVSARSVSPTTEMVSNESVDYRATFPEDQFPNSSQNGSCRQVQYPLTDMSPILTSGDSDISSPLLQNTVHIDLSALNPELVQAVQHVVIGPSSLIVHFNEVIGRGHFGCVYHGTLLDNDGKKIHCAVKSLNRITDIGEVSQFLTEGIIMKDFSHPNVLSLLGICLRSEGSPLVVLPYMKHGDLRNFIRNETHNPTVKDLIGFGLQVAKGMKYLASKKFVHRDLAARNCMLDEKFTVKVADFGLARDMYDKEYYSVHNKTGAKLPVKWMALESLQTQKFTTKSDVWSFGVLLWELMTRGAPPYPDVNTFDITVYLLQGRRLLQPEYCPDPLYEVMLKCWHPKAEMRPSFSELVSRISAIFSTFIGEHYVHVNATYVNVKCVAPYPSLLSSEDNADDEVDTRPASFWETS

## CC(c1ccc(O)cc1)c1cnc2ccc(-c3cnn(C)c3)nn12 (racemic) [Example 222, (rac)-4-{1-[6-(1-Methyl-1H-pyrazol-4-yl)-imidazo[1,2-b]pyridazin-3-yl]-ethyl}-phenol]
  IC50: 250 nM

## O=Cc1cccc(-c2ccc3ncc(Cc4ccc5ncccc5c4)n3n2)c1 [Example 24, 3-(3-Quinolin-6-ylmethyl-imidazo[1,2-b]pyridazin-6-yl)-benzaldehyde]
  IC50: 23.5 nM

## CCC(C)Nc1ccc2ncc(Cc3ccc4ncccc4c3)n2n1 (stereo not shown) [Example 78, sec-Butyl-(3-quinolin-6-ylmethyl-imidazo[1,2-b]pyridazin-6-yl)-amine]
  IC50: 9 nM

## Fc1cc2ncccc2cc1Cc1cnc2ccc(-c3cnn(CCN4CCOCC4)c3)nn12 [Example 232, 7-Fluoro-6-{6-[1-(2-morpholin-4-yl-ethyl)-1H-pyrazol-4-yl]-imidazo[1,2-b]pyridazin-3-ylmethyl}-quinoline]
  IC50: 66 nM

## Cc1ccc(-c2ccc3ncc(Cc4ccc5ncccc5c4)n3n2)cc1 [Example 16, 6-(6-p-Tolyl-imidazo[1,2-b]pyridazin-3-ylmethyl)-quinoline]
  IC50: 94.5 nM

## CN(C)[C@@H]1CCN(c2ccc3ncc(Cc4ccc5ncccc5c4)n3n2)C1 [Example 88, Dimethyl-[(R)-1-(3-quinolin-6-ylmethyl-imidazo[1,2-b]pyridazin-6-yl)-pyrrolidin-3-yl]-amine]
  IC50: 12 nM

## CC(c1ccc2ncccc2c1Cl)c1cnc2ccc(-c3cnn(C4CCNCC4)c3)nn12 (racemic) [Example 223, (rac)-5-Chloro-6-{1-[6-(1-piperidin-4-yl-1H-pyrazol-4-yl)-imidazo[1,2-b]pyridazin-3-yl]-ethyl}-quinoline]
  IC50: 33 nM

## COCCOCCn1cc(-c2ccc3ncc(Cc4cc5cccnc5cc4F)n3n2)cn1 [Example 233, 7-Fluoro-6-(6-{1-[2-(2-methoxy-ethoxy)-ethyl]-1H-pyrazol-4-yl}-imidazo[1,2-b]pyridazin-3-ylmethyl)-quinoline]
  IC50: 120 nM

## CCn1cc(-c2ccc3ncc(Cc4cc5cccnc5cc4F)n3n2)cn1 [Example 250, 6-[6-(1-Ethyl-1H-pyrazol-4-yl)-imidazo[1,2-b]pyridazin-3-ylmethyl]-7-fluoro-quinoline]
  IC50: 15 nM

## C[C@@H](c1ccc2ncccc2c1)c1cnc2ccc(Cl)nn12 [Example 273, 6-[(S)-1-(6-Chloro-imidazo[1,2-b]pyridazin-3-yl)-ethyl]-quinoline]
  IC50: 21 nM

## Fc1cc2ncccc2cc1Cc1cnc2ccc(-c3cnn(C4CCNCC4)c3)nn12 [Example 180, 7-Fluoro-6-[6-(1-piperidin-4-yl-1H-pyrazol-4-yl)-imidazo[1,2-b]pyridazin-3-ylmethyl]-quinoline]
  IC50: 145 nM

## Clc1cccc(Sc2ccc3ncc(Cc4ccc5ncccc5c4)n3n2)c1 [Example 112, 6-[6-(3-Chloro-phenylsulfanyl)-imidazo[1,2-b]pyridazin-3-ylmethyl]-quinoline]
  IC50: 220 nM

## C[C@H](c1c(F)cc2ncccc2c1F)c1cnc2ccc(-c3cnn(C)c3)nn12 [Example 193, 5,7-Difluoro-6-{(R)-1-[6-(1-methyl-1H-pyrazol-4-yl)-imidazo[1,2-b]pyridazin-3-yl]-ethyl}-quinoline]
  IC50: 250 nM

## Cn1cc(-c2ccc3ncc(Cc4ccc5ncccc5c4F)n3n2)cn1 [Example 160, 5-Fluoro-6-[6-(1-methyl-1H-pyrazol-4-yl)-imidazo[1,2-b]pyridazin-3-ylmethyl]-quinoline]
  IC50: 12 nM

## c1cnc2ccc(Cc3cnc4ccc(-c5cncnc5)nn34)cc2c1 [Example 54, 6-(6-Pyrimidin-5-yl-imidazo[1,2-b]pyridazin-3-ylmethyl)-quinoline]
  IC50: 120 nM

## C[C@H](c1c(F)cc2ncccc2c1F)c1cnc2ccc(-c3cnn(CCO)c3)nn12 [Example 183, 2-(4-{3-[(R)-1-(5,7-Difluoro-quinolin-6-yl)-ethyl]-imidazo[1,2-b]pyridazin-6-yl}-pyrazol-1-yl)ethanol]
  IC50: 200 nM

## c1ccc(Nc2ccc3ncc(Cc4ccc5ncccc5c4)n3n2)cc1 [Example 122, Phenyl-(3-quinolin-6-ylmethyl-imidazo[1,2-b]pyridazin-6-yl)-amine]
  IC50: 73 nM

## CC(c1c(F)cc2ncccc2c1F)c1cnc2ccc(-c3cnn(C)c3)nn12 (racemic) [Example 191, (rac)-5,7-Difluoro-6-{1-[6-(1-methyl-1H-pyrazol-4-yl)-imidazo[1,2-b]pyridazin-3-yl]-ethyl}-quinoline]
  IC50: < 3 nM

## O[C@H]1CCN(c2ccc3ncc(Cc4ccc5ncccc5c4)n3n2)C1 [Example 107, (S)-1-(3-Quinolin-6-ylmethyl-imidazo[1,2-b]pyridazin-6-yl)-pyrrolidin-3-ol]
  IC50: 20 nM

## Cn1ccc2cc(-c3ccc4ncc(Cc5ccc6ncccc6c5)n4n3)ccc21 [Example 37, 6-[6-(1-Methyl-1H-indol-5-yl)-imidazo[1,2-b]pyridazin-3-ylmethyl]-quinoline]
  IC50: 30 nM

## CN(C)c1cccc(-c2ccc3ncc(Cc4ccc5ncccc5c4)n3n2)c1 [Example 36, Dimethyl-[3-(3-quinolin-6-ylmethyl-imidazo[1,2-b]pyridazin-6-yl)-phenyl]-amine]
  IC50: 65 nM

## c1cnc2ccc(Cc3cnc4ccc(-n5ccnc5)nn34)cc2c1 [Example 115, 6-(6-Imidazol-1-yl-imidazo[1,2-b]pyridazin-3-ylmethyl)-quinoline]
  IC50: 95 nM

## Cc1nc2ccc(Cc3cnc4ccc(-c5cnn(C)c5)nn34)cc2s1 [Example 13, 3-(2-Methyl-benzothiazol-6-ylmethyl)-6-(1-methyl-1H-pyrazol-4-yl)-imidazo[1,2-b]pyridazine]
  IC50: 73.5 nM

## Nc1cccc(-c2ccc3ncc(Cc4ccc5ncccc5c4)n3n2)c1 [Example 20, 3-(3-Quinolin-6-ylmethyl-imidazo[1,2-b]pyridazin-6-yl)-phenylamine]
  IC50: 60 nM

## c1ccc(CNc2ccc3ncc(Cc4ccc5ncccc5c4)n3n2)cc1 [Example 82, Benzyl-(3-quinolin-6-ylmethyl-imidazo[1,2-b]pyridazin-6-yl)-amine]
  IC50: 220 nM

## c1cnc2ccc(Cc3cnc4ccc(-c5cc6ccccc6o5)nn34)cc2c1 [Example 31, 6-(6-Benzofuran-2-yl-imidazo[1,2-b]pyridazin-3-ylmethyl)-quinoline]
  IC50: 230 nM

## NC(=O)c1ccc(-c2ccc3ncc(Cc4ccc5ncccc5c4)n3n2)cc1Cl [Example 15, 2-Chloro-4-(3-quinolin-6-ylmethyl-imidazo[1,2-b]pyridazin-6-yl)-benzamide]
  IC50: 9.5 nM

## C[C@@H](c1ccc2[nH]ncc2c1)c1cnc2ccc(-c3cnn(C)c3)nn12 [Example 195, 3-[(S)-1-(2H-Indazol-5-yl)-ethyl]-6-(1-methyl-1H-pyrazol-4-yl)-imidazo[1,2-b]pyridazine]
  IC50: 14 nM

## CCCn1cc(-c2ccc3ncc(Cc4ccc5ncccc5c4)n3n2)cn1 [Example 46, 6-[6-(1-Propyl-1H-pyrazol-4-yl)-imidazo[1,2-b]pyridazin-3-ylmethyl]-quinoline]
  IC50: 57 nM

## CNC(=O)c1cccc(-c2ccc3ncc(Cc4ccc5ncccc5c4)n3n2)c1 [Example 58, N-Methyl-3-(3-quinolin-6-ylmethyl-imidazo[1,2-b]pyridazin-6-yl)-benzamide]
  IC50: 250 nM

## c1cnc2ccc(Cc3cnc4ccc(-c5cnc6ccccc6c5)nn34)cc2c1 [Example 39, 6-(6-Quinolin-3-yl-imidazo[1,2-b]pyridazin-3-ylmethyl)-quinoline]
  IC50: 72 nM
